Data: patent US10913745B2, “Octahydro-pyrrolo[3,4-c]-pyrrole derivatives and analogs thereof as autotaxin inhibitors” (Hoffmann-La Roche Inc., priority 2013, dated 2021)

Target: ATX (human His-tagged) (Homo sapiens (Human), UniProt Q13822)
Test: Human ATX enzyme inhibition assay (fluorescence quenching, MR121 substrate)
Format: biochemical
Settings: MR121 substrate 1 μM, ATX 30 nM final, 30° C.
Procedure: Human ATX Enzyme Inhibition Assay
ATX inhibition was measured by a fluorescence quenching assay using a specifically labeled substrate analogue (MR121 substrate). To obtain this MR121 substrate, BOC and TBS protected 6-amino-hexanoic acid (R)-3-({2-[3-(2-{2-[2-(2-amino-ethoxy)-ethoxy]-ethoxy}-ethoxy)-propionylamino]-ethoxy}-hydroxy-phosphoryloxy)-2-hydroxy-propyl ester (Ferguson et al., Org Lett 2006, 8 (10), 2023) was labeled with MR121 fluorophore (CAS 185308-24-1, 1-(3-carboxypropyl)-11-ethyl-1,2,3,4,8,9,10,11-octahydro-dipyrido[3,2-b:2′,3′-i]phenoxazin-13-ium) on the free amine of the ethanolamine side and then, after deprotection, subsequently with tryptophan on the side of the aminohexanoic acid. Assay working solutions were made as follows: Assay buffer (50 mM Tris-HCl, 140 mM NaCl, 5 mM KCl, 1 mM CaCl2, 1 mM MgCl2, 0.01% Triton-X-100, pH 8.0; ATX solution: ATX (human His-tagged) stock solution (1.08 mg/mL in 20 mM bicine, pH 8.5, 0.15 M NaCl, 10% glycerol, 0.3% CHAPS, 0.02% NaN3), diluted to 1.4-2.5× final concentration in assay buffer; MR121 substrate solution: MR121 substrate stock solution (800 μM MR121 substrate in DMSO), diluted to 2-5× final concentration in assay buffer. Test compounds (10 mM stock in DMSO, 8 μL) were obtained in 384 well sample plates (Corning Costar #3655) and diluted with 8 μL DMSO. Row-wise serial dilutions were made by transferring 8 μL cpd solution to the next row up to row O. The compound and control solutions were mixed five times and 2 μL were transferred to 384 well assay plates (Corning Costar #3702). Then, 15 μL of 41.7 nM ATX solution was added (30 nM final concentration), mixed five times and then incubated for 15 minutes at 30° C. 10 μL of MR121 substrate solution was added (1 μM final concentration), mixed 30 times and then incubated for 15 minutes at 30° C.

IC50 [nM] | SMILES
12 | CC(C)(C)C(=O)Nc1cc(C#N)ccc1COC(=O)N1C[C@@H]2CN(C(=O)c3ccc(S(N)(=O)=O)cc3)C[C@H]2C1 [Example 1.24, (3aS,6aS)-5-(4-sulfamoyl-benzoyl)-hexahydro-pyrrolo[3,4-c]pyrrole-2-carboxylic acid 4-cyano-2-(2,2-dimethyl-propionylamino)-benzylester]
2 | CC(C)(C)C(=O)Nc1cc(C#N)ccc1COC(=O)N1C[C@@H]2CN(C(=O)c3ccc(S(N)(=O)=O)cc3F)C[C@H]2C1 [Example 1.25, (3aS,6aS)-5-(2-fluoro-4-sulfamoyl-benzoyl)-hexahydro-pyrrolo[3,4-c]pyrrole-2-carboxylic acid 4-cyano-2-(2,2-dimethyl-propionylamino)-benzyl ester]
10 | CC(C)(C)C(=O)Nc1cc(C#N)ccc1COC(=O)N1C[C@@H]2CN(C(=O)c3ccc(S(N)(=O)=O)cn3)C[C@H]2C1 [Example 1.26, (3aS,6aS)-5-(5-sulfamoyl-pyridine-2-carbonyl)-hexahydro-pyrrolo[3,4-c]pyrrole-2-carboxylic acid 4-cyano-2-(2,2-dimethyl-propionylamino)-benzyl ester]
342 | CC(=O)Nc1ccc(C(=O)N2C[C@H]3CN(C(=O)OCc4cc(Cl)cc(Cl)c4)C[C@H]3C2)cc1 [Example 2, (3aR,6aS)-3,5-Dichlorobenzyl 5-(4-acetamidobenzoyl)hexahydropyrrolo[3,4-c]pyrrole-2(1H)-carboxylate]
1500 | CC(=O)Nc1ccc(C(=O)N2C[C@H]3CN(C(=O)OCc4cc(Cl)cc(Cl)c4)C[C@H]3C2)nc1 [Example 2.01, (3aR,6aS)-3,5-Dichlorobenzyl 5-(5-acetamidopicolinoyl)hexahydropyrrolo[3,4-c]pyrrole-2(1H)-carboxylate]
31 | NS(=O)(=O)c1ccc(S(=O)(=O)N2C[C@H]3CN(C(=O)OCc4cc(Cl)cc(Cl)c4)C[C@H]3C2)cc1 [Example 3, (3aR,6aS)-3,5-Dichlorobenzyl 5-(4-sulfamoylphenylsulfonyl)hexahydropyrrolo[3,4-c]pyrrole-2(1H)-carboxylate]
573 | O=C(OCc1cc(Cl)cc(Cl)c1)N1C[C@@H]2CN(C(=O)c3ccc(-c4nnn[nH]4)cc3)C[C@@H]2C1 [Example 4, (3aR,6aS)-3,5-Dichlorobenzyl 5-(4-(1H-tetrazol-5-yl)benzoyl)hexahydropyrrolo[3,4-c]pyrrole-2(1H)-carboxylate]
1340 | O=C(O)c1ccc(C(=O)N2C[C@H]3CN(C(=O)OCc4cc(Cl)cc(Cl)c4)C[C@H]3C2)cc1 [Example 5, 4-((3aR,6aS)-5-((3,5-Dichlorobenzyloxy)carbonyl)octahydropyrrolo[3,4-c]pyrrole-2-carbonyl)benzoic acid]
622 | CS(=O)(=O)Nc1ccc(C(=O)N2C[C@H]3CN(C(=O)OCc4cc(Cl)cc(Cl)c4)C[C@H]3C2)nc1 [Example 6, (3aR,6aS)-3,5-Dichlorobenzyl 5-(5-(methylsulfonamido)picolinoyl)hexahydropyrrolo[3,4-c]pyrrole-2(1H)-carboxylate]
14.5 | CS(=O)(=O)c1cc(Cl)cc(COC(=O)N2C[C@@H]3CN(C(=O)c4ccc(S(N)(=O)=O)cc4)C[C@H]3C2)c1 [Example 7, (3aS,6aS)-5-(4-Sulfamoyl-benzoyl)-hexahydro-pyrrolo[3,4-c]pyrrole-2-carboxylic acid 3-chloro-5-methanesulfonyl-benzyl ester]
1 | NS(=O)(=O)c1ccc(C(=O)N2C[C@H]3CN(C(=O)OCc4ccc(OC(F)(F)F)cc4F)C[C@H]3C2)cc1 [Example 7.01, (3aR,6aS)-5-(4-sulfamoyl-benzoyl)-hexahydro-pyrrolo[3,4-c]pyrrole-2-carboxylic acid 2-fluoro-4-trifluoromethoxy-benzyl ester]
